# From US20110152112A1, “DIAGNOSIS AND TREATMENT OF REVERSE CHOLESTEROL TRANSPORT DEFICIENCY-RELATED DISEASES” (Artery Therapeutics, Inc., priority 2009, published 2011)
# Tested on: J774 mouse macrophages (foam-cells)
# Assay: Lipid efflux from J774 macrophage foam-cells to media (nascent HDL, LC-MS/MS)
# Format: cell-based
# Method: Study 1: Isolation of Nascent HDL from Incubations of Macrophage Foam-Cells with AT5261 and apoA-I.
# A commercial transformed macrophage cell-line, J774 (mouse), was used to evaluate lipid efflux responses to peptide ATI-5261 and ApoA-I. Macrophage foam-cells were prepared and exposed to lipid-free AT5261 peptide and ApoA-I, respectively; Nascent HDL products resulting from stimulation of cholesterol efflux were isolated and concentrated from conditioned medium and analyzed for lipid content.
# Near confluent T175-flasks (30 total) of J774 mouse macrophages were incubated (2 days) with 0.1 mg/ml acetylated LDL in […] culture medium containing 1% FBS, to produce foam-cells. On the day of the experiment, cell monolayers were rinsed (3 times) with 20 ml/flask of HBSS, incubated 1 h with 0.2% BSA in serum-free RPMI-1640 medium, then rinsed (3 times) with serum-free RPMI. Rinsed cells were then exposed (20 ml/flask) to either apoA-I (15 flasks) or ATI-5261 (15 flasks), at a final concentration of 10 microgram/ml serum free RPMI. Following 20 h, conditioned medium was recovered from flasks, pooled within groups, and filtered (0.2 mμ). The pooled medium (˜300 ml) was subsequently concentrated to 5 ml using an Amicon stir-cell (10 K membrane) and density adjusted to 1.21 g/ml with solid NaBr. Nascent HDL was isolated by ultracentrifugation (120K, 5 h 20 minutes, 10° C.) using a TL-120 centrifuge, samples dialyzed to saline (pH=7.4) and filter sterilized (0.2 nip, Nalgene capsules). Isolated material was used for detailed MS of PL subclasses, subjected to non-denaturing gradient gel electrophoresis and protein lipid ratios determined by 280 abs. and commercial kits.
# Samples were kept at −80° C. until extraction. Samples were allowed to thaw on ice and a small aliquot of each sample was transferred into siliconized glass tubes followed by addition of ultrapure water. Samples were spiked with either a mixture of C17-based ceramide, sphingosine, sphingosine-1-phosphate and sphingomyelin (10 ng of each as internal sphingolipid standards) or ([…] of deuterated 16:0/16:0 PC as internal phosphatidylcholine standard). Samples were subjected to a Bligh and Dyer extraction (Bligh, E. G., Dryer, W. J. (1959) Can J Biochem physiol 37, 911-917). Lipid extracts were dried under stream of nitrogen at room temperature. The dried lipid extracts were then reconstituted in […] ethanol/formic acid (99.8/0.2) and kept at 4° C. until LC-MS/MS analysis. Extracts were injected onto a reverse phase C18 HPLC Column to separate and resolve the various lipids. Phosphatidylcholine and sphingolipids were eluted off the column and analyzed on a triple quadrupole mass spectrometer Sciex API 5500. The data acquisition was performed in a targeted MRM (MS/MS) mode using lipid specific precursor ion to product ion (or parent to daughter ion) mass transitions resulting in highly sensitive and specific quantitative data. The resulting data was processed using Applied Biosystems Analyst 1.4.2 software.
substance,measurement,setting,value
"ApoA-I: apolipoprotein A-I, natures strongest effluxer, lipid-free comparator",Cholesterol: Phospholipid molar ratio mobilized to media,"10 microgram/ml, 20 h, (S.D.)",2.89 (S.D. 0.68)
same,PC mobilized to media,"LC-MS/MS, 10 microgram/ml, 20 h",19
same,LPC mobilized to media,"LC-MS/MS, n=2",40
same,LPC media concentrations,all LPC,increased
same,phospholipid (PL) media concentrations,all PL,increased
same,type of LPC mobilized,values adjusted for the 2-fold difference,more of longer chain and more saturated LPCs
